Patent publication US11992009B2, “Pesticide-containing soil disinfestation material without use of fumigant” (priority 2020, dated 2024)

Assay: Lab soil pesticide release testing
Type: physicochemical
Conditions: HPLC, LoQ 0.25 g/ha
Protocol: 200 g of dry soil is placed in rectangular thin layer chromatography chamber of 27×7×26 cm with lid and 20 g water is added to the soil. A 58 cm^2 of a polymer composite material sample is placed on the humid soil and weight down by a glass plate with a contact pressure of […] to simulate similar contact conditions with the soil as in the field after application of the polymer composite material like a plastic mulch film. […]
After the set contact time with the soil the film sample is removed, moisture is dabbed off, loose dirt is brushed off and then the sample is dried at 60 C in an oven for 10 min. After drying the sample is cut into 100 small squares (each about 7.5 by 7.5 mm), placed in a small glass flask with 5 gram of Methanol and a magnetic stir bar. The flask is capped, stirred for 4 hours and the methanolic solution is then analyzed by HPLC. The difference between the initial and remaining amount of pesticide is released to the soil during the set time. The lowest concentration of analyte that can be determined with an acceptable repeatability and trueness by the method is 0.025 mg/m^2=0.25 g/ha Limit of quantitation (LoQ).

[1] = Example 4 material, 0 days (initial content)
[2] = Example 4 material, 7 days on humid soil
[3] = Example 4 material, 14 days on humid soil
[4] = Example 4 material, 21 days on humid soil
[5] = Example 3 material, 0 days (initial content)
[6] = Example 3 material, 7 days on humid soil
[7] = Example 3 material, 14 days on humid soil
[8] = Example 3 material, 21 days on humid soil
[9] = Example 5 material, 0 days (initial content)
[10] = Example 5 material, 7 days on humid soil
[11] = Example 5 material, 14 days on humid soil
[12] = Example 5 material, 21 days on humid soil
[13] = Example 1 material, 0 days (initial content)
[14] = Example 1 material, 7 days on humid soil
[15] = Example 1 material, 14 days on humid soil
[16] = Example 1 material, 21 days on humid soil
[17] = Example 2 material, 0 days (initial content)
[18] = Example 2 material, 7 days on humid soil
[19] = Example 2 material, 14 days on humid soil
[20] = Example 2 material, 21 days on humid soil

| Compound | Pesticide content of fumigant-free soil disinfestation materials after set time on Soil [1] | Pesticide content of fumigant-free soil disinfestation materials after set time on Soil [2] | Pesticide content of fumigant-free soil disinfestation materials after set time on Soil [3] | Pesticide content of fumigant-free soil disinfestation materials after set time on Soil [4] | Pesticide content of fumigant-free soil disinfestation materials after set time on Soil [5] | Pesticide content of fumigant-free soil disinfestation materials after set time on Soil [6] | Pesticide content of fumigant-free soil disinfestation materials after set time on Soil [7] | Pesticide content of fumigant-free soil disinfestation materials after set time on Soil [8] | Pesticide content of fumigant-free soil disinfestation materials after set time on Soil [13] | Pesticide content of fumigant-free soil disinfestation materials after set time on Soil [14] | Pesticide content of fumigant-free soil disinfestation materials after set time on Soil [15] | Pesticide content of fumigant-free soil disinfestation materials after set time on Soil [16] | Pesticide content of fumigant-free soil disinfestation materials after set time on Soil [17] | Pesticide content of fumigant-free soil disinfestation materials after set time on Soil [18] | Pesticide content of fumigant-free soil disinfestation materials after set time on Soil [19] | Pesticide content of fumigant-free soil disinfestation materials after set time on Soil [20] | other results |
| --- | --- | --- | --- | --- | --- | --- | --- | --- | --- | --- | --- | --- | --- | --- | --- | --- | --- |
| CCc1cccc(C)c1N(C(=O)CCl)[C@@H](C)COC [s-metolachlor] | 800 g/ha | 5 g/ha | 0 g/ha | 0 g/ha | – | – | – | – | – | – | – | – | – | – | – | – | – |
| CC(C)(C)C(O)(CCc1ccc(Cl)cc1)Cn1cncn1 (stereo not drawn) [Tebuconazole] | – | – | – | – | 954 g/ha | 125 g/ha | 45 g/ha | 8 g/ha | – | – | – | – | – | – | – | – | – |
| Cc1nn(-c2cc(NS(C)(=O)=O)c(Cl)cc2Cl)c(=O)n1C(F)F [Sulfentrazone] | – | – | – | – | 202 g/ha | 15 g/ha | 0 g/ha | 0 g/ha | – | – | – | – | – | – | – | – | – |
| O=C(NCCc1ncc(C(F)(F)F)cc1Cl)c1ccccc1C(F)(F)F [Fluopyram] | – | – | – | – | 91 g/ha | 0 g/ha | 0 g/ha | 0 g/ha | – | – | – | – | – | – | – | – | Pesticide content of fumigant-free soil disinfestation materials after set time on Soil [9]: 350 g/ha; Pesticide content of fumigant-free soil disinfestation materials after set time on Soil [10]: 14 g/ha; Pesticide content of fumigant-free soil disinfestation materials after set time on Soil [11]: 0 g/ha; Pesticide content of fumigant-free soil disinfestation materials after set time on Soil [12]: 0 g/ha |
| COC(=O)c1c(Cl)nn(C)c1S(=O)(=O)NC(=O)Nc1nc(OC)cc(OC)n1 [Halosulfuron-methyl] | – | – | – | – | 35 g/ha | 0 g/ha | 0 g/ha | 0 g/ha | 35 g/ha | 0 g/ha | 0 g/ha | 0 g/ha | 35 g/ha | 0 g/ha | 0 g/ha | 0 g/ha | Pesticide content of fumigant-free soil disinfestation materials after set time on Soil [9]: 40 g/ha; Pesticide content of fumigant-free soil disinfestation materials after set time on Soil [10]: 0 g/ha; Pesticide content of fumigant-free soil disinfestation materials after set time on Soil [11]: 0 g/ha; Pesticide content of fumigant-free soil disinfestation materials after set time on Soil [12]: 0 g/ha |
| CON=C(C(=O)OC)c1ccccc1CON=C(C)c1cccc(C(F)(F)F)c1 [Trifloxystrobin] | – | – | – | – | 238 g/ha | 65 g/ha | 35 g/ha | 3 g/ha | – | – | – | – | – | – | – | – | – |
| CNC(=O)O/N=C(\SC)C(=O)N(C)C [Oxamyl] | – | – | – | – | – | – | – | – | 1800 g/ha | 0 g/ha | 0 g/ha | 0 g/ha | 1800 g/ha | 0 g/ha | 0 g/ha | 0 g/ha | – |
| COCC(=O)N(c1c(C)cccc1C)C(C)C(=O)OC (stereo not drawn) [Metalaxyl] | – | – | – | – | – | – | – | – | 936 g/ha | 12 g/ha | 1 g/ha | 0 g/ha | 936 g/ha | 15 g/ha | 0 g/ha | 0 g/ha | – |
| CSc1nnc(C(C)(C)C)c(=O)n1N [Metribuzin] | 375 g/ha | 0 g/ha | 0 g/ha | 0 g/ha | – | – | – | – | – | – | – | – | – | – | – | – | – |
| COCC(=O)N(c1c(C)cccc1C)[C@H](C)C(=O)OC [Mefenoxam] | 281 g/ha | 19 g/ha | 0 g/ha | 0 g/ha | – | – | – | – | – | – | – | – | – | – | – | – | – |
| CO/C=C(/C(=O)OC)c1ccccc1Oc1cc(Oc2ccccc2C#N)ncn1 [Azoxystrobin] | – | – | – | – | – | – | – | – | 96 g/ha | 12 g/ha | 0 g/ha | 0 g/ha | 96 g/ha | 9 g/ha | 0 g/ha | 0 g/ha | Pesticide content of fumigant-free soil disinfestation materials after set time on Soil [9]: 10 g/ha; Pesticide content of fumigant-free soil disinfestation materials after set time on Soil [10]: 0 g/ha; Pesticide content of fumigant-free soil disinfestation materials after set time on Soil [11]: 0 g/ha; Pesticide content of fumigant-free soil disinfestation materials after set time on Soil [12]: 0 g/ha |
| O=C(NCc1ncc(C(F)(F)F)cc1Cl)c1c(Cl)cccc1Cl [Fluopicolide] | 450 g/ha | 60 g/ha | 30 g/ha | 15 g/ha | – | – | – | – | – | – | – | – | – | – | – | – | – |
| O=S(=O)(CCC(F)=C(F)F)c1ncc(Cl)s1 [Fluensulfone] | 2807 g/ha | 0 g/ha | 0 g/ha | 0 g/ha | – | – | – | – | – | – | – | – | – | – | – | – | – |
